# Test results published in US20240382466A1, “PHARMACEUTICAL COMPOSITION FOR PREVENTING OR TREATING ALZHEIMER’S DISEASE” (priority 2021, published 2024).
# Tests used:
# [1] = system: mice in a model of Alzheimer's disease; assay: Contents of tryptophan, L-kynurenine and 5-hydroxytryptamine in serum by high performance liquid chromatography; type: in vivo, Kunming mice; details: 8 weeks, x ± s, n = 10
# Method: 100 SPF-grade Kunming mice, each half male and female, weighed 20-22 g, were provided by the Jinan Pengyue Experimental Animal Breeding Co., Ltd with the animal certificate number: SCXK(Lu)20190003. The mice were bred to freely drink and eat in an SPF-grade animal breeding room with strictly controlled environmental conditions: the temperature of 20-26° C., the humidity of 40-70%, the light and dark cycle of 12 h:12 h, and a growing and breeding feed. The mice meeting the learning standard were screened, 10 of them were randomly selected as a normal group, 10 as a model group, and the others as experimental groups. Except that the mice in the normal group were intraperitoneally injected with the same amount of normal saline and intragastrically administrated with the same amount of double distilled water, the mice of the other groups were all intraperitoneally injected with D-galactose (500 mg/kg/D) (prepared with normal saline) and intragastrically administrated AlCl3 (20 mg/kg/D) (prepared with double distilled water). The mice in the experimental groups were intragastrically administrated once a day according to the grouping and administration dose and the mice in the normal group and the model group were intragastrically administrated with the same amount of purified water for 8 weeks successively. The mice in the experimental groups were divided into 8 groups of low- and high-dose anhydroicaritin groups, low- and high-dose compound I groups, and composition A, B, C, and D groups with 10 mice in each group. […] After the last administration, […] of blood was taken from each eyeball of each group of the mice subjected to the eight-arm maze test and stood overnight at 4° C. in a test tube, and a supernatant was taken the following day for later use. The contents of tryptophan, L-kynurenine, and 5-hydroxytryptamine in blood serum were detected by a high performance liquid chromatography.
# [2] = system: mice in a model of Alzheimer's disease; assay: Eight-arm maze behavioral experiment in D-galactose/AlCl3 mouse model of Alzheimer's disease; type: in vivo, Kunming mice; details: 8 weeks, x ± s, n = 10
# From the text: A food providing device is arranged at an end of each arm of an eight-arm maze. The spatial memory ability of an experimental animal may be reflected according to the strategy of analyzing feeding of an animal, namely the parameters of the times, time, correct times, wrong times, routes and the like of entering each arm. In contrast, the eight-arm maze is simple, convenient and feasible to operate, can distinguish short-term working memory from long-term reference memory, and is widely used for evaluating a learning and memory cognitive experiment. The main analysis indexes of the eight-arm maze are name, grouping, working memory error latency, reference memory error latency, total correct times, total arm entering times, working memory error times, reference memory error times, correct latency, correct rate, working memory error rate, reference memory error rate, correct times before first error, test time, a track graph and the like. […] 100 SPF-grade Kunming mice, each half male and female, weighed 20-22 g, were provided by the Jinan Pengyue Experimental Animal Breeding Co., Ltd with the animal certificate number: SCXK(Lu)20190003. The mice were bred to freely drink and eat in an SPF-grade animal breeding room with strictly controlled environmental conditions: the temperature of 20-26° C., the humidity of 40-70%, the light and dark cycle of 12 h:12 h, and a growing and breeding feed. All mice were first trained in an eight-arm maze which was a common model for evaluating the learning and memory ability of an animal. The animals were adaptively fed for 1 week, weighed, and fasted for 24 hours. Then after each day of training, the mice were restrictively given a normal diet to maintain the body weight of the mice between 80% and 85% of that of mice fed normally. On the second day, food particles (4-5 particles each arm with the diameter of about 3-4 mm) were sprayed in each arm and a center area of the maze. Then 4 animals were placed in the center of the maze simultaneously (doors to each arm were opened). The animals were freely fed and explored for 10 min. On the third day, the training of the second day was repeated. This process allowed the animals to become familiar with the maze environment without very strong stress. On the fourth day, the animals were trained individually: one food particle was placed in each arm near an outer food box and the animals ate freely. The animals were removed after the food particles were consumed or 10 min later. On the fifth day, the food was placed in the food box and the previous day of training was repeated 2 times a day. After the sixth day, 4 arms were randomly selected and one food particle was placed in each arm; each arm door was closed and the animals were placed in the center of the maze; and after 30s, the arm door was opened, the animals moved freely in the maze and took the food particle until the animals ate the food particles of all 4 arms. If the food particles were not eaten up after 10 min, the experiment was terminated. The animals were trained twice a day with the interval of 1 h or more. […] The mice meeting the learning standard were screened, 10 of them were randomly selected as a normal group, 10 as a model group, and the others as experimental groups. Except that the mice in the normal group were intraperitoneally injected with the same amount of normal saline and intragastrically administrated with the same amount of double distilled water, the mice of the other groups were all intraperitoneally injected with D-galactose (500 mg/kg/D) (prepared with normal saline) and intragastrically administrated AlCl3 (20 mg/kg/D) (prepared with double distilled water). The mice in the experimental groups were intragastrically administrated once a day according to the grouping and administration dose and the mice in the normal group and the model group were intragastrically administrated with the same amount of purified water for 8 weeks successively. […]
# microglia = details: Alzheimer's disease inflammation model; cited from earlier work
# GSK-3 = details: cited from earlier work
# [3] = high-dose anhydroicaritin group, 21.2 mg/(kg·d) intragastric
# [4] = low-dose anhydroicaritin group, 3.2 mg/(kg·d) intragastric
# [5] = high-dose anhydroicaritin group, 21.2 mg/(kg·d) intragastric once a day
# [6] = low-dose anhydroicaritin group, 3.2 mg/(kg·d) intragastric once a day
# [7] = high-dose compound I group, 32 mg/(kg·d) intragastric
# [8] = low-dose compound I group, 0.6 mg/(kg·d) intragastric
# [9] = high-dose compound I group, 32 mg/(kg·d) intragastric once a day
# [10] = low-dose compound I group, 0.6 mg/(kg·d) intragastric once a day
smiles,measurement,setting,value
COc1ccc(-c2oc3c(CC=C(C)C)c(O)cc(O)c3c(=O)c2O)cc1 [anhydroicaritin],5-hydroxytryptamine (μg/ml),[1]; [3],1.30 ± 0.07^+ μg/ml
same,L-kynurenine (μg/ml),[1]; [3],0.33 ± 0.02^+ μg/ml
same,Tryptophan (μg/ml),[1]; [3],17.90 ± 0.30^+ μg/ml
same,5-hydroxytryptamine (μg/ml),[1]; [4],1.29 ± 0.05^+ μg/ml
same,L-kynurenine (μg/ml),[1]; [4],0.33 ± 0.01^+ μg/ml
same,Tryptophan (μg/ml),[1]; [4],17.79 ± 0.65^+ μg/ml
same,Average exploration time (s),[2]; [5],189.81 ± 1.19^+ s
same,Reference memory error frequency,[2]; [5],0.20 ± 0.04^+
same,Working memory error frequency,[2]; [5],0.44 ± 0.06^+
same,Average exploration time (s),[2]; [6],190.17 ± 1.18^+ s
same,Reference memory error frequency,[2]; [6],0.21 ± 0.03^+
same,Working memory error frequency,[2]; [6],0.45 ± 0.02^+
N=C(N)NCCNc1nonc1/C(=N/O)Nc1ccc(F)c(Br)c1 [compound I],5-hydroxytryptamine (μg/ml),[1]; [7],1.28 ± 0.05^+ μg/ml
same,L-kynurenine (μg/ml),[1]; [7],0.33 ± 0.01^+ μg/ml
same,Tryptophan (μg/ml),[1]; [7],18.08 ± 0.02^+ μg/ml
same,5-hydroxytryptamine (μg/ml),[1]; [8],1.29 ± 0.05^+ μg/ml
same,L-kynurenine (μg/ml),[1]; [8],0.35 ± 0.03^+ μg/ml
same,Tryptophan (μg/ml),[1]; [8],17.92 ± 0.95^+ μg/ml
same,Average exploration time (s),[2]; [9],189.95 ± 1.04^+ s
same,Reference memory error frequency,[2]; [9],0.21 ± 0.04^+
same,Working memory error frequency,[2]; [9],0.44 ± 0.05^+
same,Average exploration time (s),[2]; [10],190.20 ± 1.09^+ s
same,Reference memory error frequency,[2]; [10],0.23 ± 0.05^+
same,Working memory error frequency,[2]; [10],0.52 ± 0.03^++
COc1ccc(-c2oc3c(CC=C(C)C)c(O)cc(O)c3c(=O)c2O)cc1 [icaritin],activation of microglia induced by LPS,microglia,inhibit excessive activation of microglia induced by LPS
same,learning and memory ability of mice,microglia,improve the learning and memory ability of mice
same,GSK-3 activity,GSK-3,inhibiting GSK-3 activity
